Results published in patent publication US20240156860A1, “METHOD OF TREATING INFECTED AND NONINFECTED BURN WOUNDS” (priority 2021, published 2024).

What was measured:
Type in all cases: cell-based, Pseudomonas aeruginosa
PAO1 = test: Checkerboard assay for MIC and FIC determination; details: strain PAO1
Protocol: (§1) The inventors further confirmed the bactericidal activity of AB569 gel against various clinical strains of PA isolated from burn wound patients by synergy measurements using the checkerboard analysis. […] FICI=Fractional inhibitory concentration index. […] is synergistic; 0.5<FICI<1 is weak synergistic.
(§2) 96-well polystyrene plates were filled with 100 μl of LB, pH 6.5 and 10% SS hydrogel (Smith and Nephew, London, UK). Row A was filled with 100 μl of a 4× stock of Na2-EDTA (16 mM) and […] was filled with 4× NaNO2 stock (256 mM), bringing both to a 2× concentration. Two-fold serial dilutions were performed such that a concentration gradient of each was created. Column 12 was filled with media to represent a negative control. An overnight culture of bacteria was adjusted to an OD600 of 0.5 in LB media. This was then diluted 1:1000 into fresh media, which was then added to the checkerboard plate (columns 1-11). This dilution was selected as it harbored ˜5×10^5 CFU/ml. Column 11 was the positive control. Plates were incubated at 37° C. The cell turbidity was determined using a 96 well plate reader after 24 hours inoculation. The threshold used for a positive cutoff to calculate MICs and FICs was 0.001 after blank (media) subtraction.

[1] = tested on: clinical strains of PA isolated from burn wounds; test: Checkerboard assay for MIC and FIC determination; details: for MIC EDTA / MIC NaNO2: LB pH 6.5, 10% SS hydrogel, 24 hours; for FIC NaNO2: NaNO2 in combination with EDTA
Protocol: as §1, §2

bioluminescent PA Xen41 = test: Broth based killing assay; details: for killing of PA Xen41: 2 mM Na2-EDTA and/or 30 mM NaNO2 with gel (Solosite) 1:100, LB pH 6.5, 48 hours
Protocol: The efficacy of a formulation according to the present disclosure was tested in vitro using an overnight culture of bioluminescent PA Xen41, diluted in LB media (pH 6.5) along with a gel (Solosite®, herein SS) at a 1:100 dilution. Bioluminescent PA was used for both in vitro and in vivo experiments.
(§3) Bioluminescent PA-Xen41 was grown overnight in LB media at 37° C. with shaking. Overnight cultures were diluted 100-fold into fresh LBN (LB-1% KNO3) 6.5 media and 5 ml aliquots were transferred to culture tubes. Final concentrations of 30 mM NaNO2 and/or 2 mM Na2-EDTA were added to each tube. Cells were grown anaerobically at 37° C. mimicking a mature biofilm. Samples were taken daily for 48 hours while the cells were still in the anaerobic chamber. Samples were serially diluted in PBS, pH 7.4, and 10 μl aliquot from each dilution placed on LB agar plates and grown aerobically overnight at 37° C. CFU were enumerated the next morning and converted to CFU/ml after multiplying by the dilution factor.

[2] = tested on: clinical strains of PA isolated from human burn patients; test: Broth based killing assay on clinical strains; details: gel formulation; 2 mM Na2-EDTA and/or 30 mM NaNO2; strains with varying antibiotic sensitivity and resistance
Protocol: The efficacy of the AB569 gel formulation was tested on different clinical strains of PA isolated from human burn patients with varying sensitivity and resistance to antibiotics using a broth based killing assay.
as §3

[3] = LB pH 6.5, 10% SS hydrogel, 24 hours

For O=C([O-])CN(CCN(CC(=O)[O-])CC(=O)O)CC(=O)O.[Na+].[Na+] [Na2-EDTA, di-sodium EDTA], which “FIC EDTA” value (PAO1; EDTA in combination with NaNO2) is on record?
Its value is 0.333 ± 0.144 mM.

What about the “MIC EDTA” value (PAO1; [3]) of the same molecule?
The value was 0.833 ± 0.289 mM.

What about the “MIC EDTA” value ([1]; strain Burn #1-1) of the same molecule?
The value was 0.5 ± 0^ mM.

And the “MIC EDTA” value ([1]; strain Burn #1)?
Its value is 0.833 ± 0.289 mM.

What about the “MIC EDTA” value ([1]; strain Burn #2-1) of the same molecule?
The value was 0.833 ± 0.289 mM.

What about the “MIC EDTA” value ([1]; strain Burn #2) of the same molecule?
Its value is 0.5 ± 0^ mM.

What about the “MIC EDTA” value ([1]; strain Burn #3-1) of the same molecule?
Its value is 0.667 ± 0.289 mM.

And the “MIC EDTA” value ([1]; strain Burn #3)?
Its value is 0.833 ± 0.289 mM.

What about the “MIC EDTA” value ([1]; strain Burn #4-1) of the same molecule?
The value was 0.5 ± 0^ mM.

What about the “MIC EDTA” value ([1]; strain Burn #4) of the same molecule?
Its value is 0.667 ± 0.289 mM.

And the “MIC EDTA” value ([1]; strain Burn #5-1)?
The value was 0.5 ± 0^ mM.

And the “MIC EDTA” value ([1]; strain Burn #5)?
Its value is 0.5 ± 0^ mM.

What about the “MIC EDTA” value ([1]; strain Burn #6-1) of the same molecule?
Its value is 0.5 ± 0^ mM.

What about the “MIC EDTA” value ([1]; strain Burn #6) of the same molecule?
The value was 0.667 ± 0.289 mM.

What about the “MIC EDTA” value ([1]; strain Burn #7-1) of the same molecule?
The value was 0.5 ± 0^ mM.

What about the “MIC EDTA” value ([1]; strain Burn #7) of the same molecule?
The value was 0.833 ± 0.289 mM.

And the “MIC EDTA” value ([1]; strain Burn #8-1)?
Its value is 0.5 ± 0^ mM.

What about the “MIC EDTA” value ([1]; strain Burn #8) of the same molecule?
The value was 0.667 ± 0.289 mM.

And the “MIC EDTA” value ([1]; strain Burn #9-1)?
Its value is 0.5 ± 0^ mM.

And the “MIC EDTA” value ([1]; strain Burn #9)?
The value was 0.5 ± 0^ mM.

What about the “MIC EDTA” value ([1]; strain Burn #10-1) of the same molecule?
Its value is 0.416 ± 0.144 mM.

What about the “MIC EDTA” value ([1]; strain Burn #11-1) of the same molecule?
Its value is 0.667 ± 0.289 mM.

What about the “MIC EDTA” value ([1]; strain Burn #12-1) of the same molecule?
Its value is 0.5 ± 0^ mM.

What about the “killing of PA Xen41” value (bioluminescent PA Xen41) of the same molecule?
Its value is “significant killing”.

And the “killing of clinical strains of PA” value [2]?
Its value is “efficient killing”.

Which “MIC NaNO2” value (PAO1; [3]) does the source give for O=N[O-].[Na+] [NaNO2] here?
Its value is 18.667 ± 12.220 mM.

What about the “FIC NaNO2” value (PAO1; NaNO2 in combination with EDTA) of the same molecule?
Its value is 4.083 ± 3.876 mM.

And the “MIC NaNO2” value ([1]; strain Burn #1-1)?
The value was 26.667 ± 9.238 mM.

And the “FIC NaNO2” value ([1]; strain Burn #1-1)?
The value was 5.333 ± 2.309 mM.

What about the “MIC NaNO2” value ([1]; strain Burn #1) of the same molecule?
Its value is 18.667 ± 12.220 mM.

What about the “FIC NaNO2” value ([1]; strain Burn #1) of the same molecule?
The value was 4.167 ± 3.752 mM.

What about the “MIC NaNO2” value ([1]; strain Burn #2-1) of the same molecule?
Its value is 26.667 ± 9.238 mM.

And the “FIC NaNO2” value ([1]; strain Burn #2-1)?
The value was 6.667 ± 2.309 mM.

What about the “MIC NaNO2” value ([1]; strain Burn #2) of the same molecule?
Its value is 14.667 ± 15.144 mM.

And the “FIC NaNO2” value ([1]; strain Burn #2)?
The value was 7.333 ± 7.572 mM.

And the “MIC NaNO2” value ([1]; strain Burn #3-1)?
Its value is 21.333 ± 9.238 mM.

And the “FIC NaNO2” value ([1]; strain Burn #3-1)?
The value was 5.333 ± 2.309 mM.

What about the “MIC NaNO2” value ([1]; strain Burn #3) of the same molecule?
Its value is 24 ± 13.856 mM.

What about the “FIC NaNO2” value ([1]; strain Burn #3) of the same molecule?
The value was 6.667 ± 2.309 mM.

And the “MIC NaNO2” value ([1]; strain Burn #4-1)?
Its value is 21.333 ± 9.238 mM.

And the “FIC NaNO2” value ([1]; strain Burn #4-1)?
Its value is 9.333 ± 6.110 mM.

What about the “MIC NaNO2” value ([1]; strain Burn #4) of the same molecule?
Its value is 13.333 ± 4.618 mM.

And the “FIC NaNO2” value ([1]; strain Burn #4)?
The value was 2.75 ± 2.165 mM.

And the “MIC NaNO2” value ([1]; strain Burn #5-1)?
Its value is 21.333 ± 9.238 mM.

And the “FIC NaNO2” value ([1]; strain Burn #5-1)?
Its value is 2.667 ± 1.155 mM.

What about the “MIC NaNO2” value ([1]; strain Burn #5) of the same molecule?
The value was 13.333 ± 4.618 mM.

What about the “FIC NaNO2” value ([1]; strain Burn #5) of the same molecule?
Its value is 4.667 ± 3.055 mM.

What about the “MIC NaNO2” value ([1]; strain Burn #6-1) of the same molecule?
Its value is 13.333 ± 4.618 mM.

And the “FIC NaNO2” value ([1]; strain Burn #6-1)?
The value was 2.333 ± 1.523 mM.

What about the “MIC NaNO2” value ([1]; strain Burn #6) of the same molecule?
The value was 18.667 ± 12.220 mM.

What about the “FIC NaNO2” value ([1]; strain Burn #6) of the same molecule?
The value was 5.333 ± 2.309 mM.

What about the “MIC NaNO2” value ([1]; strain Burn #7-1) of the same molecule?
Its value is 21.333 ± 9.238 mM.

What about the “FIC NaNO2” value ([1]; strain Burn #7-1) of the same molecule?
The value was 6 ± 3.464 mM.

What about the “MIC NaNO2” value ([1]; strain Burn #7) of the same molecule?
The value was 24 ± 13.856 mM.

And the “FIC NaNO2” value ([1]; strain Burn #7)?
The value was 6.667 ± 2.309 mM.

And the “MIC NaNO2” value ([1]; strain Burn #8-1)?
The value was 21.333 ± 9.238 mM.

And the “FIC NaNO2” value ([1]; strain Burn #8-1)?
The value was 0.75 ± 0.433 mM.

And the “MIC NaNO2” value ([1]; strain Burn #8)?
The value was 16 ± 0 mM.

And the “FIC NaNO2” value ([1]; strain Burn #8)?
Its value is 2.167 ± 1.756 mM.

What about the “MIC NaNO2” value ([1]; strain Burn #9-1) of the same molecule?
The value was 21.333 ± 9.238 mM.

And the “FIC NaNO2” value ([1]; strain Burn #9-1)?
Its value is 4.666 ± 3.055 mM.

And the “MIC NaNO2” value ([1]; strain Burn #9)?
The value was 13.333 ± 4.618 mM.

What about the “FIC NaNO2” value ([1]; strain Burn #9) of the same molecule?
Its value is 5.333 ± 2.309 mM.

What about the “MIC NaNO2” value ([1]; strain Burn #10-1) of the same molecule?
Its value is 16 ± 0 mM.

What about the “FIC NaNO2” value ([1]; strain Burn #10-1) of the same molecule?
The value was 4 ± 0 mM.

And the “MIC NaNO2” value ([1]; strain Burn #11-1)?
Its value is 32 ± 27.713 mM.

What about the “FIC NaNO2” value ([1]; strain Burn #11-1) of the same molecule?
Its value is 8 ± 0 mM.

What about the “MIC NaNO2” value ([1]; strain Burn #12-1) of the same molecule?
Its value is 26.667 ± 9.238 mM.

And the “FIC NaNO2” value ([1]; strain Burn #12-1)?
The value was 6 ± 3.464 mM.

And the “killing of PA Xen41” value (bioluminescent PA Xen41)?
The value was “completely killed”.

What about the “killing of PA Xen41” value (bioluminescent PA Xen41; listed as A-NO2^−) of the same molecule?
Its value is “complete and maintained 48 hours”.

What about the “bioluminescent signals of XEN41-containing plates (IVIS)” value (bioluminescent PA Xen41; 48 hours after treatment) of the same molecule?
Its value is “elimination of bioluminescent signals”.
